# Data reported in patent US20100279324A1, “Assay For Detecting Mycobacterial Infection” (The University of Birmingham, priority 2007, published 2010).
# System: T cells present in the PBL's
# Format: cell-based, human
# Conditions: anti-CD1b antibody, TB patients
substance,measurement,value
mycolic acid,CD1b restriction of antigen-specific response,CD1b restricted
